tested on: human primary T-cells, IL-2 stimulated proliferation (JAK-1 and JAK-3 dependent; reported as JAK3 activity); test: Human primary T-cell proliferation stimulated by IL-2 (Example 3); format: cell-based; conditions: Homo sapiens, T-cell, tested under conditions described in Example 3 (IL-2 stimulated human primary T-cell proliferation); read-out: ability to inhibit JAK3 activity, IC50 range (Table V)
In short: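 Peripheral-blood human T-cells pre-activated via TCR/CD28, IL-2-starved overnight, then cultured 72 h at 37 °C with compound in Yssel's medium containing IL-2 (80 U/mL in cell suspension). Proliferation read as viable-cell ATP by CellTiter-Glo luminescence; reduction versus control taken as JAK pathway inhibition.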

Row | SMILES | IC50 [nM]
1 | Cc1cnc(Nc2ccc(N3CCC(NC(=O)NCc4ccccc4)C3)nc2)nc1Nc1ccc2oc(=O)[nH]c2c1 (stereo not drawn) [II-98, 1-benzyl-3-(1-(5-(5-methyl-4-(2-oxo-2,3-dihydrobenzo[d]oxazol-5-ylamino)pyrimidin-2-ylamino)pyridin-2-yl)pyrrolidin-3-yl)urea] | < 500
2 | Cc1cnc(Nc2ccc(N[C@H]3CCCN(Cc4ccccc4)C3)nc2)nc1Nc1ccc2oc(=O)[nH]c2c1 [II-99, (S)-5-(2-(6-(1-benzylpiperidin-3-ylamino)pyridin-3-ylamino)-5-methylpyrimidin-4-ylamino)benzo[d]oxazol-2(3H)-one] | < 500
3 | Cc1cnc(Nc2ccc(N3CCC(NC(=O)C4CC4)C3)nc2)nc1Nc1ccc2oc(=O)[nH]c2c1 (stereo not drawn) [II-101, N-(1-(5-(5-methyl-4-(2-oxo-2,3-dihydrobenzo[d]oxazol-5-ylamino)pyrimidin-2-ylamino)pyridin-2-yl)pyrrolidin-3-yl)cyclopropanecarboxamide] | < 500
4 | Cc1cnc(Nc2ccc(N(C)[C@H]3CCCNC3)nc2)nc1Nc1ccc2oc(=O)[nH]c2c1 [II-103, (S)-5-(5-methyl-2-(6-(methyl(piperidin-3-yl)amino)pyridin-3-ylamino)pyrimidin-4-ylamino)benzo[d]oxazol-2(3H)-one] | < 500
5 | Cc1cnc(Nc2ccc(N[C@H]3CCCNC3)nc2)nc1Nc1ccc2oc(=O)[nH]c2c1 [II-104, (S)-5-(5-methyl-2-(6-(piperidin-3-ylamino)pyridin-3-ylamino)pyrimidin-4-ylamino)benzo[d]oxazol-2(3H)-one] | < 500
6 | Cc1cnc(Nc2ccc(N(C)[C@@H]3CCCN(Cc4ccccc4)C3)nc2)nc1Nc1ccc2oc(=O)[nH]c2c1 [II-106, (R)-5-(2-(6-((1-benzylpiperidin-3-yl)(methyl)amino)pyridin-3-ylamino)-5-methylpyrimidin-4-ylamino)benzo[d]oxazol-2(3H)-one] | < 500
7 | Cc1cnc(Nc2ccc(N[C@@H]3CCCNC3)nc2)nc1Nc1ccc2oc(=O)[nH]c2c1 [II-107, (R)-5-(5-methyl-2-(6-(piperidin-3-ylamino)pyridin-3-ylamino)pyrimidin-4-ylamino)benzo[d]oxazol-2(3H)-one] | < 500
8 | Cc1cnc(Nc2ccc(N(C)[C@@H]3CCCNC3)nc2)nc1Nc1ccc2oc(=O)[nH]c2c1 [II-108, (R)-5-(5-methyl-2-(6-(methyl(piperidin-3-yl)amino)pyridin-3-ylamino)pyrimidin-4-ylamino)benzo[d]oxazol-2(3H)-one] | < 500
9 | Cc1cnc(Nc2cnc(N3C[C@@H]4C[C@H]3CN4C)c(C(F)(F)F)c2)nc1Nc1ccc2oc(=O)[nH]c2c1 [II-109, N4-(benzo[d]oxazolin-2(3H)-one-5-yl)-5-methyl-N2-[2-((1S,4S)-5-methyl-2,5-diazabicyclo[2.2.1]heptan-2-yl)-3-trifluoromethylpyridine-5-yl]-2,4-pyrimidinediamine] | < 500
10 | CCN1CCN(c2ncc(Nc3ncc(C)c(Nc4ccc5oc(=O)[nH]c5c4)n3)cc2C(F)(F)F)CC1 [II-110, N4-(benzo[d]oxazolin-2(3H)-one-5-yl)-N2-[2-(4-ethylpiperazin-1-yl)-3-trifluoromethylpyridine-5-yl]-5-methyl-2,4-pyrimidinediamine] | < 500
11 | Cc1cnc(Nc2cnc(N3CCN(C)CC3)c(F)c2)nc1Nc1ccc2oc(=O)[nH]c2c1 [II-111, N4-(benzo[d]oxazolin-2(3H)-one-5-yl)-N2-[3-fluoro-2-(4-methylpiperazin-1-yl)pyridine-5-yl]-5-methyl-2,4-pyrimidinediamine] | < 500
12 | CCN1CCN(c2ncc(Nc3ncc(C)c(Nc4ccc5oc(=O)[nH]c5c4)n3)cc2F)CC1 [II-114, N4-(benzo[d]oxazolin-2(3H)-one-5-yl)-N2-[2-(4-ethylpiperazin-1-yl)-3-fluoropyridine-5-yl]-5-methyl-2,4-pyrimidinediamine] | < 500
13 | Cc1cnc(Nc2cnc(N3C[C@@H]4C[C@H]3CN4C)c(C#N)c2)nc1Nc1ccc2oc(=O)[nH]c2c1 [II-115, N4-(benzo[d]oxazolin-2(3H)-one-5-yl)-N2-[3-cyano-2-((1S,4S)-5-methyl-2,5-diazabicyclo[2.2.1]heptan-2-yl)pyridine-5-yl]-5-methyl-2,4-pyrimidinediamine] | < 500
14 | Cc1cnc(Nc2cnc(N3CCN(C)CC3)c(Cl)c2)nc1Nc1ccc2oc(=O)[nH]c2c1 [II-116, N2-[3-chloro-2-(4-methylpiperazino)pyridin-5-yl]-5-methyl-N4-(2-oxo-2,3-dihydro-1,3-benzoxazol-5-yl)-2,4-pyrimidinediamine] | < 500
15 | Cc1cnc(Nc2ccc(N3CC4(C)CN(C)CC(C)(C3)C4)nc2)nc1Nc1ccc2oc(=O)[nH]c2c1 [II-117, 5-methyl-N4-(2-oxo-2,3-dihydro-1,3-benzoxazol-5-yl)-N2-[2-(1,3,5-trimethyl-3,7-diazabicyclo[3.3.1]nonan-7-yl)pyridin-5-yl]-2,4-pyrimidinediamine] | < 500
16 | CCN1CC2CN(c3ncc(Nc4ncc(C)c(Nc5ccc6oc(=O)[nH]c6c5)n4)cc3Cl)CC2C1 (stereo not drawn) [II-118, N2-[3-chloro-2-(3-ethyl-3,7-diazabicyclo[3.3.0]octan-7-yl)pyridin-5-yl]-5-methyl-N4-(2-oxo-2,3-dihydro-1,3-benzoxazol-5-yl)-2,4-pyrimidinediamine] | < 500
17 | CCN1CC2CN(c3ncc(Nc4ncc(C)c(Nc5ccc6oc(=O)[nH]c6c5)n4)cc3C(F)(F)F)CC2C1 (stereo not drawn) [II-119, N2-[2-(3-ethyl-3,7-diazabicyclo[3.3.0]octan-7-yl)-3-trifluoromethylpyridin-5-yl]-5-methyl-N4-(2-oxo-2,3-dihydro-1,3-benzoxazol-5-yl)-2,4-pyrimidinediamine] | < 500
18 | Cc1cnc(Nc2ccc(N3CC4CN(C)CC4C3)nc2)nc1Nc1ccc2oc(=O)[nH]c2c1 (stereo not drawn) [II-120, 5-methyl-N2-[2-(3-methyl-3,7-diazabicyclo[3.3.0]octan-7-yl)pyridin-5-yl]-N4-(2-oxo-2,3-dihydro-1,3-benzoxazol-5-yl)-2,4-pyrimidinediamine] | < 500
19 | Cc1cnc(Nc2ccc(C3NCC4CCCCC43)nc2)nc1Nc1ccc2oc(=O)[nH]c2c1 (stereo not drawn) [II-121, 5-methyl-N2-[2-(octahydroisoindol-1-yl)pyridin-5-yl]-N4-(2-oxo-2,3-dihydro-1,3-benzoxazol-5-yl)-2,4-pyrimidinediamine] | < 500
20 | Cc1cnc(Nc2cnc(C3NCC4CCCCC43)c(Cl)c2)nc1Nc1ccc2oc(=O)[nH]c2c1 (stereo not drawn) [II-122, N2-[3-chloro-2-(octahydroisoindol-1-yl)pyridin-5-yl]-5-methyl-N4-(2-oxo-2,3-dihydro-1,3-benzoxazol-5-yl)-2,4-pyrimidinediamine] | < 500
21 | COc1ccc(Nc2ncc(C)c(Nc3ccc4oc(=O)[nH]c4c3)n2)cn1 [II-123, N2-(2-methoxypyridin-5-yl)-5-methyl-N4-(2-oxo-2,3-dihydro-1,3-benzoxazol-5-yl)-2,4-pyrimidinediamine] | < 500
22 | C=C1C[C@@H](O)CN1c1ccc(Nc2ncc(C)c(Nc3ccc4oc(=O)[nH]c4c3)n2)cn1 [II-126, N2-[2-(4R-hydroxy-2-methylidene-pyrrolidin-1-yl)pyridin-5-yl]-5-methyl-N4-(2-oxo-2,3-dihydro-1,3-benzoxazol-5-yl)-2,4-pyrimidinediamine] | 500 to 5000
23 | Cc1cnc(Nc2ccc(N3C[C@@H](C)N(C)[C@@H](C)C3)nc2)nc1Nc1ccc2oc(=O)[nH]c2c1 [II-127, 5-methyl-N4-(2-oxo-2,3-dihydro-1,3-benzoxazol-5-yl)-N2-[2-(cis-3,4,5-trimethylpiperazino)pyridin-5-yl]-2,4-pyrimidinediamine] | < 500

same assay, conditions: tested under conditions described in Example 3 (IL-2 stimulated human primary T-cell proliferation); read-out: ability to inhibit JAK3 activity, IC50 range (Table V)

Row | SMILES | IC50 [nM]
24 | Cc1cnc(Nc2ccc(N(C)[C@H]3CCCN(Cc4ccccc4)C3)nc2)nc1Nc1ccc2oc(=O)[nH]c2c1 [II-100, (S)-5-(2-(6-((1-benzylpiperidin-3-yl)(methyl)amino)pyridin-3-ylamino)-5-methylpyrimidin-4-ylamino)benzo[d]oxazol-2(3H)-one] | < 500
25 | Cc1cnc(Nc2ccc(N3CCC(NC(=O)C(C)(C)C)C3)nc2)nc1Nc1ccc2oc(=O)[nH]c2c1 (stereo not drawn) [II-102, N-(1-(5-(5-methyl-4-(2-oxo-2,3-dihydrobenzo[c]oxazol-5-ylamino)pyrimidin-2-ylamino)pyridin-2-yl)pyrrolidin-3-yl)pivalamide] | < 500
26 | Cc1cnc(Nc2cnc(N3CCN4CCC[C@H]4C3)c(F)c2)nc1Nc1ccc2oc(=O)[nH]c2c1 [II-112, N4-(benzo[d]oxazolin-2(3H)-one-5-yl)-N2-{2-[(8S)-1,4-diazabicyclo[4.3.0]nonane-1-yl]-3-fluoropyridine-5-yl}-5-methyl-2,4-pyrimidinediamine] | < 500
27 | Cc1cnc(Nc2cnc(N3CCN4CCC[C@@H]4C3)c(F)c2)nc1Nc1ccc2oc(=O)[nH]c2c1 [II-113, N4-(benzo[d]oxazolin-2(3H)-one-5-yl)-N2-{2-[(8R)-1,4-diazabicyclo[4.3.0]nonane-1-yl]-3-fluoropyridine-5-yl}-5-methyl-2,4-pyrimidinediamine] | < 500
28 | Cc1cnc(Nc2cnc(N3CCN4CCC[C@H]4C3)c(C(F)(F)F)c2)nc1Nc1ccc2oc(=O)[nH]c2c1 [II-124, N2-[2-(S-1,4-diazabicylco[4.3.0]nonan-4-yl)-3-trifluoromethylpyridin-5-yl]-5-methyl-N4-(2-oxo-2,3-dihydro-1,3-benzoxazol-5-yl)-2,4-pyrimidinediamine] | < 500
29 | Cc1cnc(Nc2cnc(N3CCN4CCC3CC4)c(F)c2)nc1Nc1ccc2oc(=O)[nH]c2c1 [II-125, N2-[2-(1,4-diazabicylco[3.2.2]nonan-4-yl)-3-fluoropyridin-5-yl]-5-methyl-N4-(2-oxo-2,3-dihydro-1,3-benzoxazol-5-yl)-2,4-pyrimidinediamine] | < 500
30 | Cc1cnc(Nc2ccc(N3CCN4CCCCC4C3)nc2)nc1Nc1ccc2oc(=O)[nH]c2c1 (stereo not drawn) [II-128, N2-[2-(1,4-diazabicylco[4.4.0]decan-4-yl)pyridin-5-yl]-5-methyl-N4-(2-oxo-2,3-dihydro-1,3-benzoxazol-5-yl)-2,4-pyrimidinediamine] | < 500
